Test results: ChEMBL document CHEMBL4715686, “Differently fluorescence-labelled dibenzodiazepinone-type muscarinic acetylcholine receptor ligands with high M2R affinity” (RSC Med Chem, 2020)

Columns and labels:
[1] = target: T1, Muscarinic acetylcholine receptor M2 (Homo sapiens, UniProt P08172); assay: Displacement of [3H]-NMS from muscarinic M2 receptor (unknown origin) expressed in A9 cells by scintillation counting analysis; format: cell-based
[2] = target: T2, Muscarinic acetylcholine receptor M4 (Homo sapiens, UniProt P08173); assay: Displacement of [3H]-NMS from muscarinic M4 receptor (unknown origin) expressed in NG108-15 cells by scintillation counting analysis; format: cell-based
T2 sequence (P08173 whole entry): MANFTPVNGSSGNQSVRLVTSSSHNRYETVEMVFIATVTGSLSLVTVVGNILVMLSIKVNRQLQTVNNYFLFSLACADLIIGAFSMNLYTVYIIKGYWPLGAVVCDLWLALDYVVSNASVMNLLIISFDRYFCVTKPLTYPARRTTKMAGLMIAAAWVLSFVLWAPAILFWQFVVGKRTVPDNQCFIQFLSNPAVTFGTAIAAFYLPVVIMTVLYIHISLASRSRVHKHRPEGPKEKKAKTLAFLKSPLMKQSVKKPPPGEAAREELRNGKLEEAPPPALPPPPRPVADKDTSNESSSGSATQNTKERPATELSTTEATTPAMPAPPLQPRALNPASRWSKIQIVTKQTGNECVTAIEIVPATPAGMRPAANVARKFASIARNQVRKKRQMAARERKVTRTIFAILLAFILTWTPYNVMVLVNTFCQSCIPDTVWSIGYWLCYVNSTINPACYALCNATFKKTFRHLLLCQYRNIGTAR

[3] = target: T3, Muscarinic acetylcholine receptor M1 (Homo sapiens, UniProt P11229); assay: Displacement of [3H]NMS from human recombinant muscarinic receptor M1 expressed in CHO-K9 cell membranes measured after 3 hrs by radioligand competition binding assay; parameters: species or system Membrane
T3 sequence (P11229 whole entry): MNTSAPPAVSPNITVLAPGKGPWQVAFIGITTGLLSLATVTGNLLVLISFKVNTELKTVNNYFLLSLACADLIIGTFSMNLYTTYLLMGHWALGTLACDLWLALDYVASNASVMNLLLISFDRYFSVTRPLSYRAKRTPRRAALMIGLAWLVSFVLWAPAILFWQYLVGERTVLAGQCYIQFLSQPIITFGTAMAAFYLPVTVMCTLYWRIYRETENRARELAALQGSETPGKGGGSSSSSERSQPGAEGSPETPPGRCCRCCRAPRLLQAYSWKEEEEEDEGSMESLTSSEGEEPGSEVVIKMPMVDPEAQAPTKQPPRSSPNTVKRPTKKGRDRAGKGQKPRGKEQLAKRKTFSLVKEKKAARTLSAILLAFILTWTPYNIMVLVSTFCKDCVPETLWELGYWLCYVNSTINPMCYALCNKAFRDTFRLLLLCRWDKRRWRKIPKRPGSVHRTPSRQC

[4] = target: T1, Muscarinic acetylcholine receptor M2; assay: Displacement of [3H]NMS from human recombinant muscarinic receptor M2 expressed in CHO-K9 cell membranes measured after 3 hrs by radioligand competition binding assay; parameters: species or system Membrane
[5] = target: T4, Muscarinic acetylcholine receptor M2 (Homo sapiens, UniProt P08172); assay: Binding affinity to human muscarinic M2 receptor expressed in CHO-K9 cells assessed as unspecific binding at Kd incubated in dark at 22 degree C for 2 hrs in presence of atropine by FACSCantoII flow cytometric saturation binding study relative to control; format: cell-based
T4 sequence (P08172 whole entry): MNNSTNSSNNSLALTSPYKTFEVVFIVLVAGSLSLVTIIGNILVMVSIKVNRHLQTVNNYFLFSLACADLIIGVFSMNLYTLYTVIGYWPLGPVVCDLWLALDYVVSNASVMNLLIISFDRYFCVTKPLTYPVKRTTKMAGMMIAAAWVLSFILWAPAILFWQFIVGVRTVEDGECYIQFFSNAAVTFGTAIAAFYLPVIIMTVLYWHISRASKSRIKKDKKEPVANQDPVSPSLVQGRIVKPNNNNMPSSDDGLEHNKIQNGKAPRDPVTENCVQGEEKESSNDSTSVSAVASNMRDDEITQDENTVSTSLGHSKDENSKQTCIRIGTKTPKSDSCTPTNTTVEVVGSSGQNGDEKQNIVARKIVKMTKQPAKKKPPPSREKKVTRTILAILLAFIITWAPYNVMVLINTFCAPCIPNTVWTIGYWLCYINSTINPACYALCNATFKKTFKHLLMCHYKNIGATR

[6] = target: Muscarinic acetylcholine receptor M3 (Homo sapiens, UniProt P20309); assay: Displacement of [3H]NMS from human recombinant muscarinic receptor M3 expressed in CHO-K9 cell membranes measured after 3 hrs by radioligand competition binding assay; parameters: species or system Membrane
[7] = target: T2, Muscarinic acetylcholine receptor M4; assay: Displacement of [3H]NMS from human recombinant muscarinic receptor M4 expressed in CHO-K9 cell membranes measured after 3 hrs by radioligand competition binding assay; parameters: species or system Membrane
[8] = target: T5, Muscarinic acetylcholine receptor M5 (Homo sapiens, UniProt P08912); assay: Displacement of [3H]NMS from human recombinant muscarinic receptor M5 expressed in CHO-K9 cell membranes measured after 3 hrs by radioligand competition binding assay; parameters: species or system Membrane
T5 sequence (P08912 whole entry): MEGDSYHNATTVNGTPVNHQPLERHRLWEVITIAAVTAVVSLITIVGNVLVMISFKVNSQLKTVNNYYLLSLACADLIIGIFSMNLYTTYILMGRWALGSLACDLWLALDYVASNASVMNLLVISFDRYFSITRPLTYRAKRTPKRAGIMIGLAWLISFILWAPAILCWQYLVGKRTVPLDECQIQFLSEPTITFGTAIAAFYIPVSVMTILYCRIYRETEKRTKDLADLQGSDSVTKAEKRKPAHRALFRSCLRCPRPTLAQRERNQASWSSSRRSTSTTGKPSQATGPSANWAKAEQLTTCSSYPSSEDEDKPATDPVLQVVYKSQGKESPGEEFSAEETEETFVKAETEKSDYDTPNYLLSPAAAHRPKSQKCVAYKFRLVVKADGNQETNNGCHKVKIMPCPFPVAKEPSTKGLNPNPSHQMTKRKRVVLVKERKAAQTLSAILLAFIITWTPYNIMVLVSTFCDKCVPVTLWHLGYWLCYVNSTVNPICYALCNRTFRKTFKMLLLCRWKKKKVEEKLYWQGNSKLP

[9] = target: T4, Muscarinic acetylcholine receptor M2; assay: Binding affinity to human muscarinic M2 receptor expressed in CHO-K9 cells assessed as unspecific binding at Kd incubated in dark at 22 degree C for 2 hrs in presence of atropine by FACSCalibur flow cytometric saturation binding study relative to control; format: cell-based

Chain of Muscarinic acetylcholine receptor M3 (P20309 whole entry): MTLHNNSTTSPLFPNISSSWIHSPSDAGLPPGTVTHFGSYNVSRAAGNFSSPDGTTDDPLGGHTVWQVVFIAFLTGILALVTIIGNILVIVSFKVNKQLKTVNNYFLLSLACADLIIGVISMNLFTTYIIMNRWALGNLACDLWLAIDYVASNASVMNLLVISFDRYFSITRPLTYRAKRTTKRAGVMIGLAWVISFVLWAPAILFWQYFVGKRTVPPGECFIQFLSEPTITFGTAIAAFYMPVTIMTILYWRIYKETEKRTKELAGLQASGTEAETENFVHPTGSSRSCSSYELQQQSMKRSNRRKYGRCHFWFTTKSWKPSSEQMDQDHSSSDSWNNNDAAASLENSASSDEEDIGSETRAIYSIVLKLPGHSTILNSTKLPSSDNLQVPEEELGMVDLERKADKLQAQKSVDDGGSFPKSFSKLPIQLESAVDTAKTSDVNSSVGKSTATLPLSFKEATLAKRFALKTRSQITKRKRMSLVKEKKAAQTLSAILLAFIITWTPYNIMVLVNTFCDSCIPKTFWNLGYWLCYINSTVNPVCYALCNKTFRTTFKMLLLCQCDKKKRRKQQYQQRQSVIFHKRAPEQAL

Ki [1] [nM] | Ki [2] [nM] | Ki [3] [nM] | Ki [4] [nM] | Kd ([5]; read-out: Kd) [nM] | Kd ([5]; read-out: pKd (converted)) [nM] | Ki [6] [nM] | Ki [7] [nM] | Ki [8] [nM] | Kd ([9]; read-out: Kd) [nM] | Kd ([9]; read-out: pKd (converted)) [nM] | SMILES
0.316 | 2 | – | – | – | – | – | – | – | – | – | CCN(CC)CCCCC1CCN(CC(=O)N2c3ccccc3NC(=O)c3ccccc32)CC1
– | – | 0.0316 | 0.0398 | – | – | – | – | – | – | – | Cc1scc2c1N(C(=O)CN1CCN(CCCCCCCCCCNC(=O)Cc3ccc4c(c3)C(C)(C)C3=C5C=C6C7=[N+](CCC6OC5CCN34)c3ccc(S(=O)(=O)[O-])cc3C7(C)C)CC1)c1ccccc1NC2=O (stereo not given)
– | – | – | 0.562 | – | – | – | – | – | – | – | NCCN1CCN(CCCCC2CCN(CC(=O)N3c4ccccc4NC(=O)c4ccccc43)CC2)CC1
– | – | – | – | 1.4 | 2.34 | – | – | – | – | – | Cc1cc(/C=C/C=C/c2ccc(N(C)C)cc2)cc(C)[n+]1CCN1CCN(CCCCC2CCN(CC(=O)N3c4ccccc4NC(=O)c4ccccc43)CC2)CC1
– | – | 1 | 0.692 | 4.5 | 3.89 | 37.2 | 0.417 | 10 | – | – | O=C(CCCCCNC(=O)COc1ccc(/C=C/C2=[N+]3C(=Cc4ccc(-c5cccs5)n4[B-]3(F)F)C=C2)cc1)NCCNC(=O)CCc1cn(CCCCC2CCN(CC(=O)N3c4ccccc4NC(=O)c4ccccc43)CC2)cn1
– | – | 7.08 | 1.35 | 3.8 | 2 | 69.2 | 2.63 | 40.7 | – | – | Cc1cc(/C=C/c2cc3c4c(c2)CCCN4CCC3)cc(C)[n+]1CCNC(=O)CCc1cn(CCCCC2CCN(CC(=O)N3c4ccccc4NC(=O)c4ccccc43)CC2)cn1
– | – | 4.79 | 0.955 | 1.9 | 0.646 | 63.1 | 2.69 | 126 | – | – | Cc1cc(/C=C/c2cc3c4c(c2)CCCN4CCC3)cc(C)[n+]1CCN1CCN(CCCCC2CCN(CC(=O)N3c4ccccc4NC(=O)c4ccccc43)CC2)CC1
– | – | 4.9 | 0.912 | 2 | – | 85.1 | 4.27 | 70.8 | – | – | Cc1cc(/C=C/C=C/c2ccc(N(C)C)cc2)cc(C)[n+]1CCNC(=O)CCc1cn(CCCCC2CCN(CC(=O)N3c4ccccc4NC(=O)c4ccccc43)CC2)cn1
– | – | 2.57 | 0.24 | – | – | 81.3 | 0.977 | 178 | 0.6 | 1.38 | CN(C)c1ccc2c(-c3ccc(C(=O)NCCN4CCN(CCCCC5CCN(CC(=O)N6c7ccccc7NC(=O)c7ccccc76)CC5)CC4)cc3C(=O)[O-])c3ccc(=[N+](C)C)cc-3oc2c1
– | – | 6.17 | 1.78 | 2.4 | 4.37 | 129 | 3.72 | 275 | – | – | CN(C)c1ccc2c(-c3ccc(C(=O)NCCNC(=O)CCc4cn(CCCCC5CCN(CC(=O)N6c7ccccc7NC(=O)c7ccccc76)CC5)cn4)cc3C(=O)[O-])c3ccc(=[N+](C)C)cc-3oc2c1
– | – | 0.501 | 1.58 | – | – | – | – | – | – | – | Cc1scc2c1N(C(=O)CN1CCN(CCCCCCCCCCNC(=O)c3ccc(-c4c5ccc(=N)c(S(=O)(=O)O)c-5oc5c(S(=O)(=O)O)c(N)ccc45)c(C(=O)O)c3)CC1)c1ccccc1NC2=O
